We go through three compounds from US4038222A, “Untriakontapeptide with opiate activity” (Hoffman-La Roche Inc., priority 1976, dated 1977).

“Also recorded” adds a separate entry of the source. No end group written: not given here.

The conditions of test [1]: pentapeptide isolated from pig brains; cited from earlier work.
In another test the test system is rabbit fat cells. As to the kind of experiment: Lipolytic activity in rabbit fat cells (procedure of Li et al.), glycerol production. The conditions noted are these: for Response: glycerol production: triplicate, mean ± standard error. The class given is cell-based. From the text: The lypolytic activity of natural beta-endorphin was compared to the activity of ovine beta-lipotropin hormone in rabbit fat cells using the procedure of Li et al., Arch. Biochem. Biophys. 169, 669 (1975).
^a Micromole of glycerol production per gram of cells per hour.
Determinations in triplicate. Values in mean ± standard error.

Test [2] deals with opiate receptor, guinea pig brain membranes. As to the kind of experiment: Opiate agonist activity by receptor binding assay (method of Simon et al.), inhibition of stereospecific binding. To be noted: for Response: percentage of inhibition of stereospecific binding: mean ± standard error from 4 determinations. On the procedure: The opiate agonist activity of natural beta-endophine was determined by the method of Simon et al., Proc. Nat. Acad. Sci. 70, 1947 (1973) using guinea pig brain membranes. The results obtained are summarized below in Table 4:
^a Percentage of inhibition of stereospecific binding.
Mean ± standard error from 4 determinations.

Turning to “H-Tyr-Gly-Gly-Phe-Met-OH- (H-YGGFM-OH) [pentapeptide isolated from pig brains by Hughes et al]”, the “Opiate agonist activity (in words)” value in test [1] was “exhibits opiate agonist activity”.

Turning to “YGGFMTSEKSQTPLVTLFKNAIIKNAHKKGQ [beta-endorphin]”, the “Lipolytic activity in comparison to the complete hormone (in words)” value in the test on rabbit fat cells (compared with beta-lipotropin hormone) was “very low”. The figures for the “Response: glycerol production” value in the test with rabbit fat cells (dose 1.1 (unit not given)) and with rabbit fat cells (dose 10.0 (unit not given)) were 0.66 ± 0.28 Micromole of glycerol producti and 1.42 ± 0.37 Micromole of glycerol producti, respectively. Besides, the “Opiate agonist activity (in words)” value in test [2] is “potent opiate agonist activity; also recorded: significant opiate agonist activity”. In addition, in test [2] (95% confidence limit of 300-392, λ = 0.044), the “Relative potency to normorphine” value is given as 342%. The “Response: percentage of inhibition of stereospecific binding” value in test [2] (dose 1.0 x 10^-7 M) turned out to be 60 ± 0.7%; in test [2] (dose 10.0 x 10^-7 M) it was 83 ± 0.2%. For the same compound, the “Potency relative to normorphine on a molar basis” value in test [2] (molar basis) was found to be 3.42 times.

As for `Oc1ccc2c3c1O[C@H]1[C@@H](O)C=C[C@H]4[C@@H](C2)NCC[C@@]341` [Normorphine, reference compound], the figures for the “Response: percentage of inhibition of stereospecific binding” value in test [2] (dose 0.7 x 10^-7 M) and in test [2] (dose 7.0 x 10^-7 M) were 28 ± 0.8% and 70 ± 0.9%, respectively.
